Legend:
Assay type in all cases: in vivo
Viola tricolor (VIOTR) [1] = assay: E. Herbicidal post-emergence efficacy, VIOTR
Procedure: (§1) Seeds of monocotyledonous and dicotyledonous weeds and crop plants were placed in sandy loam in plastic or organic planting pots, covered with soil and cultivated in a greenhouse under controlled growth conditions. 2 to 3 weeks after sowing, the test plants were treated at the one-leaf stage. The compounds of the invention, formulated in the form of wettable powders (WP) or as emulsion concentrates (EC), were then sprayed onto the green parts of the plants as aqueous suspension or emulsion with addition of 0.5% additive at a water application rate of 600 l/ha (converted). After the test plants had been kept in the greenhouse under optimum growth conditions for about 3 weeks, the activity of the preparations was rated visually in comparison to untreated controls.
(§2) For example, • 100% efficacy=plants have died, • 0% action=like untreated control plants.
(§3) Tables E1a to E12b below show the effects of selected compounds of the general formula (I) according to table 1 on various harmful plants at an application rate corresponding to 320 g/ha or less, which were obtained by the experimental procedure mentioned above.

[2] = tested on: Alopecurus myosuroides (ALOMY); assay: E. Herbicidal post-emergence efficacy, ALOMY; conditions: application rate 320 g/ha
Procedure: as §1, §2, §3

Glycine max (GLXMA) = assay: D. Pre-emergence effect on useful plants, GLXMA; conditions: useful plant, application rate 80 g/ha
Excerpt: (§4) Seeds of monocotyledonous and dicotyledonous weed plants and crop plants were placed in plastic or organic planting pots and covered with soil. The compounds of the invention, formulated in the form of wettable powders (WP) or as emulsion concentrates (EC), were then applied to the surface of the covering soil as aqueous suspension or emulsion with addition of 0.5% additive at a water application rate equivalent to 600 l/ha (converted). After the treatment, the pots were placed in a greenhouse and kept under good growth conditions for the test plants. After about 3 weeks, the efficacy of the preparations was scored visually in comparison with untreated controls as percentages. For example, • 100% efficacy=plants have died, • 0% efficacy=like untreated control plants.
(§5) Tables D1a to D5b below show the effects of selected compounds of the general formula (I) according to table 1 on various useful plants at an application rate corresponding to 320 g/ha or less, which were obtained by the experimental procedure mentioned above.

[3] = tested on: Echinochloa crus-galli (ECHCG); assay: E. Herbicidal post-emergence efficacy, ECHCG
Procedure: as §1, §2, §3

[4] = tested on: Matricaria inodora (MATIN); assay: C. Herbicidal pre-emergence efficacy, MATIN; conditions: 320 g/ha, scored after about 3 weeks
Excerpt: as §4
(§6) Tables C1a to C14b below show the effects of selected compounds of the general formula (I) according to table 1 on various harmful plants at an application rate corresponding to 320 g/ha or less, which were obtained by the experimental procedure mentioned above.

[5] = tested on: Alopecurus myosuroides (ALOMY); assay: C. Herbicidal pre-emergence efficacy, ALOMY; conditions: 320 g/ha, scored after about 3 weeks
Excerpt: as §4, §6

Lolium rigidum (LOLRI) [6] = assay: E. Herbicidal post-emergence efficacy, LOLRI; conditions: application rate 320 g/ha
Procedure: as §1, §2, §3

[7] = tested on: Echinochloa crus-galli (ECHCG); assay: C. Herbicidal pre-emergence efficacy, ECHCG; conditions: scored after about 3 weeks
Excerpt: as §4, §6

[8] = tested on: Triticum aestivum (TRZAS); assay: F. Post-emergence effect on useful plants, TRZAS; conditions: useful plant, application rate 80 g/ha
Procedure: as §1, §2
(§7) Tables F1a to F4 below show the effects of selected compounds of the general formula (I) according to table 1 on various useful plants at an application rate corresponding to 320 g/ha or less, which were obtained by the experimental procedure mentioned above.

Setaria viridis (SETVI) [9] = assay: C. Herbicidal pre-emergence efficacy, SETVI; conditions: scored after about 3 weeks
Excerpt: as §4, §6

[10] = tested on: Polygonum convolvulus (POLCO); assay: E. Herbicidal post-emergence efficacy, POLCO; conditions: application rate 320 g/ha
Procedure: as §1, §2, §3

Avena fatua (AVEFA) = assay: C. Herbicidal pre-emergence efficacy, AVEFA; conditions: 320 g/ha, scored after about 3 weeks
Excerpt: as §4, §6

[11] = tested on: Abutilon theophrasti (ABUTH); assay: C. Herbicidal pre-emergence efficacy, ABUTH; conditions: scored after about 3 weeks
Excerpt: as §4, §6

Oryza sativa (ORYSA) = assay: D. Pre-emergence effect on useful plants, ORYSA; conditions: useful plant, application rate 80 g/ha
Excerpt: as §4, §5

[12] = tested on: Amaranthus retroflexus (AMARE); assay: C. Herbicidal pre-emergence efficacy, AMARE; conditions: scored after about 3 weeks
Excerpt: as §4, §6

[13] = tested on: Abutilon theophrasti (ABUTH); assay: E. Herbicidal post-emergence efficacy, ABUTH
Procedure: as §1, §2, §3

Lolium rigidum (LOLRI) [14] = assay: C. Herbicidal pre-emergence efficacy, LOLRI; conditions: 320 g/ha, scored after about 3 weeks
Excerpt: as §4, §6

Zea mays (ZEAMX) = assay: F. Post-emergence effect on useful plants, ZEAMX; conditions: useful plant, application rate 80 g/ha
Procedure: as §1, §2, §7

Viola tricolor (VIOTR) [15] = assay: C. Herbicidal pre-emergence efficacy, VIOTR
Excerpt: as §4, §6

Veronica persica (VERPE) [16] = assay: C. Herbicidal pre-emergence efficacy, VERPE; conditions: scored after about 3 weeks
Excerpt: as §4, §6

[17] = tested on: Amaranthus retroflexus (AMARE); assay: E. Herbicidal post-emergence efficacy, AMARE
Procedure: as §1, §2, §3

Setaria viridis (SETVI) [18] = assay: E. Herbicidal post-emergence efficacy, SETVI; conditions: application rate 320 g/ha
Procedure: as §1, §2, §3

[19] = tested on: Polygonum convolvulus (POLCO); assay: C. Herbicidal pre-emergence efficacy, POLCO; conditions: scored after about 3 weeks
Excerpt: as §4, §6

Veronica persica (VERPE) [20] = assay: E. Herbicidal post-emergence efficacy, VERPE
Procedure: as §1, §2, §3

## Cc1cccc(Oc2ncc(Cl)cn2)c1OS(=O)(=O)CCCCl [Example I-11]
Viola tricolor (VIOTR) [1]; application rate 80 g/ha
  Post-emergence efficacy against VIOTR in %: 90%
Viola tricolor (VIOTR) [1]; application rate 320 g/ha
  Post-emergence efficacy against VIOTR in %: 100%
[2]
  Post-emergence efficacy against ALOMY in %: 90%
Glycine max (GLXMA)
  Pre-emergence efficacy against GLXMA in %: 20%
[3]; application rate 80 g/ha
  Post-emergence efficacy against ECHCG in %: 90%
[3]; application rate 320 g/ha
  Post-emergence efficacy against ECHCG in %: 90%
[4]
  Pre-emergence efficacy against MATIN: 80%
[5]
  Pre-emergence efficacy against ALOMY: 90%
Lolium rigidum (LOLRI) [6]
  Post-emergence efficacy against LOLRI in %: 90%
[7]; 80 g/ha
  Pre-emergence efficacy against ECHCG: 90%
[7]; 320 g/ha
  Pre-emergence efficacy against ECHCG: 100%
[8]
  Post-emergence efficacy against TRZAS in %: 20%
Setaria viridis (SETVI) [9]; 80 g/ha
  Pre-emergence efficacy against SETVI: 90%
Setaria viridis (SETVI) [9]; 320 g/ha
  Pre-emergence efficacy against SETVI: 100%
[10]
  Post-emergence efficacy against POLCO in %: 100%
Avena fatua (AVEFA)
  Pre-emergence efficacy against AVEFA: 90%
[11]; 80 g/ha
  Pre-emergence efficacy against ABUTH: 90%
[11]; 320 g/ha
  Pre-emergence efficacy against ABUTH: 90%
Oryza sativa (ORYSA)
  Pre-emergence efficacy against ORYSA in %: 20%
[12]; 80 g/ha
  Pre-emergence efficacy against AMARE: 100%
[12]; 320 g/ha
  Pre-emergence efficacy against AMARE: 100%
[13]; application rate 80 g/ha
  Post-emergence efficacy against ABUTH in %: 80%
[13]; application rate 320 g/ha
  Post-emergence efficacy against ABUTH in %: 90%
Lolium rigidum (LOLRI) [14]
  Pre-emergence efficacy against LOLRI: 80%
Zea mays (ZEAMX)
  Post-emergence efficacy against ZEAMX in %: 20%
Viola tricolor (VIOTR) [15]; application rate 80 g/ha
  Pre-emergence efficacy against VIOTR in %: 100%
Viola tricolor (VIOTR) [15]; application rate 320 g/ha
  Pre-emergence efficacy against VIOTR in %: 100%
Veronica persica (VERPE) [16]; 80 g/ha
  Pre-emergence efficacy against VERPE: 100%
Veronica persica (VERPE) [16]; 320 g/ha
  Pre-emergence efficacy against VERPE: 100%
[17]; application rate 80 g/ha
  Post-emergence efficacy against AMARE in %: 90%
[17]; application rate 320 g/ha
  Post-emergence efficacy against AMARE in %: 100%
Setaria viridis (SETVI) [18]
  Post-emergence efficacy against SETVI in %: 100%
[19]; 80 g/ha
  Pre-emergence efficacy against POLCO: 80%
[19]; 320 g/ha
  Pre-emergence efficacy against POLCO: 80%
Veronica persica (VERPE) [20]; application rate 80 g/ha
  Post-emergence efficacy against VERPE in %: 100%
Veronica persica (VERPE) [20]; application rate 320 g/ha
  Post-emergence efficacy against VERPE in %: 100%

Source: patent US20240174618A1, “SUBSTITUTED (2-HETEROARYLOXYPHENYL)SULFONATES, SALTS THEREOF AND THEIR USE AS HERBICIDAL AGENTS” (Bayer Aktiengesellschaft, priority 2021, published 2024)
